Columns and labels:
Assay in all cases: relative viability (nuclei count vs DMSO), 5 days (fraction); higher = more cells survive
AZD1208 + Foretinib = compound: N[C@@H]1CCCN(c2c(/C=C3\SC(=O)NC3=O)cccc2-c2ccccc2)C1 [AZD1208] + COc1cc2c(Oc3ccc(NC(=O)C4(C(=O)Nc5ccc(F)cc5)CC4)cc3F)ccnc2cc1OCCCN1CCOCC1 [Foretinib] (partner 0.25 µM)
Procedure, shortened: (§1)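 Relative viability equals treated-well nuclei counts divided by vehicle-well nuclei counts. Counts came from 4× images of lung cancer cell lines grown in 1536-well plates for 5 days after pin-tool dosing on the day after seeding. Dosing used one drug alone or a fixed anchor-drug dose plus five library-drug doses (not always all listed) in √10 steps, and values are medians of duplicate plates.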

AZD1208 + Phenformin = compound: N[C@@H]1CCCN(c2c(/C=C3\SC(=O)NC3=O)cccc2-c2ccccc2)C1 [AZD1208] + N=C(N)NC(=N)NCCc1ccccc1 [Phenformin] (partner 250 µM)
Procedure, shortened: as §1

XMD14-99 + Alpelisib = compound: CN1CCN(CC1)C2=CC(=C(C=C2)NC3=NC(=C(S3)C(=O)C4=C(C=CC=C4Cl)Cl)N)OC [XMD14-99] + Cc1nc(NC(=O)N2CCC[C@H]2C(N)=O)sc1-c1ccnc(C(C)(C)C(F)(F)F)c1 [Alpelisib] (partner 2 µM)
Procedure, shortened: as §1

XMD14-99 + Dasatinib = compound: CN1CCN(CC1)C2=CC(=C(C=C2)NC3=NC(=C(S3)C(=O)C4=C(C=CC=C4Cl)Cl)N)OC [XMD14-99] + Cc1nc(Nc2ncc(C(=O)Nc3c(C)cccc3Cl)s2)cc(N2CCN(CCO)CC2)n1 [Dasatinib] (partner 0.075 µM)
Procedure, shortened: as §1

Cell Line	relative viability (AZD1208 + Foretinib; first compound 0.08 µM)	relative viability (AZD1208 + Foretinib; first compound 0.253 µM)	relative viability (AZD1208 + Foretinib; first compound 0.8 µM)	relative viability (AZD1208 + Foretinib; first compound 2.53 µM)	relative viability (AZD1208 + Foretinib; first compound 8 µM)	relative viability (AZD1208 + Phenformin; first compound 0.08 µM)	relative viability (AZD1208 + Phenformin; first compound 0.253 µM)	relative viability (AZD1208 + Phenformin; first compound 0.8 µM)	relative viability (AZD1208 + Phenformin; first compound 2.53 µM)	relative viability (AZD1208 + Phenformin; first compound 8 µM)	relative viability (XMD14-99 + Alpelisib; first compound 0.08 µM)	relative viability (XMD14-99 + Alpelisib; first compound 0.8 µM)	relative viability (XMD14-99 + Alpelisib; first compound 2.53 µM)	relative viability (XMD14-99 + Alpelisib; first compound 8 µM)	relative viability (XMD14-99 + Dasatinib; first compound 0.08 µM)	relative viability (XMD14-99 + Dasatinib; first compound 0.8 µM)	relative viability (XMD14-99 + Dasatinib; first compound 2.53 µM)	relative viability (XMD14-99 + Dasatinib; first compound 8 µM)
NCI-H441	1.1	0.761	0.764	0.712	0.718	0.782	0.66	0.609	0.641	0.556	0.773	0.598	0.68	0.706	0.537	0.493	0.463	0.504
NCI-H460	0.992	1.09	0.978	0.987	1.11	0.483	0.697	0.574	0.489	0.545	0.36	0.419	0.431	0.197	0.497	0.545	0.475	0.475
NCI-H520	0.746	0.754	0.656	0.612	0.396	0.47	0.577	0.476	0.369	0.279	0.83	0.843	0.83	0.707	0.171	0.21	0.176	0.169
NCI-H596	0.882	0.912	0.806	0.865	0.673	0.674	1.01	0.689	0.668	0.477	0.503	0.587	0.477	0.568	0.597	0.604	0.572	0.562
NCI-H647	1.07	1.25	1.04	1.16	0.897	0.459	0.837	0.344	0.344	0.352	1.05	1.07	0.937	0.933	0.12	0.216	0.202	0.167
NCI-H650	1.03	1.03	0.977	0.9	0.829	0.535	0.51	0.448	0.416	0.427	1.15	0.982	0.922	0.922	0.467	0.422	0.451	0.356
NCI-H661	0.979	1.15	1.04	0.994	0.951	0.264	0.286	0.276	0.295	0.268	0.798	0.564	0.594	0.356	0.976	0.86	0.828	0.627
NCI-H727	0.843	0.938	0.737	0.533	0.781	0.359	0.497	0.514	0.532	0.524	0.553	0.513	0.447	0.407	0.322	0.273	0.309	0.23
NCI-H838	1.03	1	0.939	1.02	0.946	0.524	0.704	0.425	0.583	0.485	1	0.928	0.904	0.604	0.303	0.324	0.245	0.216
NCI-H1355	0.973	1	0.878	0.84	0.784	0.479	0.469	0.416	0.447	0.392	0.928	0.893	0.68	0.657	0.777	0.702	0.655	0.476
NCI-H1395	0.988	1	1.01	0.97	0.959	0.442	0.438	0.46	0.506	0.417	1.07	1.17	1.05	0.883	0.391	0.425	0.457	0.363
NCI-H1437	1.31	1.17	1.36	1.42	1.42	0.324	0.258	0.267	0.277	0.314	0.881	0.804	0.787	0.671	0.437	0.457	0.35	0.234
NCI-H1563	1.07	1.02	0.919	0.994	0.908	0.64	0.644	0.709	0.617	0.665	0.85	0.894	0.957	0.869	0.452	0.464	0.449	0.447
NCI-H1651	0.637	0.827	0.665	0.768	0.588	0.328	0.387	0.299	0.315	0.249	0.841	0.836	1.09	0.917	0.565	0.435	0.368	0.257
NCI-H1666	0.906	1	0.953	0.954	0.975	0.499	0.583	0.54	0.601	0.559	0.866	0.94	0.805	0.699	0.826	0.803	0.743	0.59
NCI-H1734	0.773	0.814	0.738	0.755	0.56	0.392	0.426	0.336	0.293	0.264	0.659	0.704	0.738	0.584	0.394	0.448	0.481	0.423
NCI-H1755	0.908	0.892	0.851	0.861	0.787	0.586	0.616	0.623	0.593	0.502	0.945	0.908	0.886	0.648	0.404	0.405	0.4	0.369
NCI-H1793	0.578	0.653	0.545	0.749	0.631	0.314	0.453	0.342	0.307	0.274	0.77	0.641	0.666	0.476	0.403	0.362	0.355	0.334

Cell Line	relative viability (AZD1208 + Foretinib; first compound 0.08 µM)	relative viability (AZD1208 + Foretinib; first compound 0.253 µM)	relative viability (AZD1208 + Foretinib; first compound 0.8 µM)	relative viability (AZD1208 + Foretinib; first compound 2.53 µM)	relative viability (AZD1208 + Foretinib; first compound 8 µM)	relative viability (AZD1208 + Phenformin; first compound 0.08 µM)	relative viability (AZD1208 + Phenformin; first compound 0.253 µM)	relative viability (AZD1208 + Phenformin; first compound 0.8 µM)	relative viability (AZD1208 + Phenformin; first compound 2.53 µM)	relative viability (AZD1208 + Phenformin; first compound 8 µM)	relative viability (XMD14-99 + Alpelisib; first compound 0.08 µM)	relative viability (XMD14-99 + Alpelisib; first compound 0.8 µM)	relative viability (XMD14-99 + Alpelisib; first compound 2.53 µM)	relative viability (XMD14-99 + Alpelisib; first compound 8 µM)	relative viability (XMD14-99 + Dasatinib; first compound 0.08 µM)	relative viability (XMD14-99 + Dasatinib; first compound 0.8 µM)	relative viability (XMD14-99 + Dasatinib; first compound 2.53 µM)	relative viability (XMD14-99 + Dasatinib; first compound 8 µM)
NCI-H1915	1.12	1.09	1.11	1.11	1.03	0.366	0.402	0.372	0.348	0.352	1.09	0.984	0.955	0.925	0.28	0.289	0.293	0.236
NCI-H1944	0.829	0.838	0.774	0.688	0.571	0.197	0.201	0.179	0.172	0.136	0.902	0.867	0.805	0.755	0.193	0.239	0.222	0.201
NCI-H1975	1.06	0.959	0.855	0.853	0.972	0.413	0.449	0.393	0.404	0.359	0.715	0.605	0.553	0.378	0.307	0.304	0.312	0.248
NCI-H1993	0.763	0.664	0.581	0.71	0.713	0.538	0.468	0.522	0.471	0.488	0.63	0.731	0.601	0.59	0.656	0.539	0.457	0.489
NCI-H2009	1.23	1.2	1.14	1.26	1.16	0.481	0.489	0.491	0.489	0.441	1.14	1.13	1.13	0.968	0.263	0.294	0.261	0.164
NCI-H2023	0.811	0.462	0.795	0.805	0.634	0.394	0.386	0.348	0.367	0.295	0.614	0.527	0.646	0.534	0.536	0.607	0.739	0.404
NCI-H2085	0.965	0.97	1.23	0.886	0.748	0.679	0.677	0.675	0.688	0.668	0.92	0.866	0.889	0.728	0.267	0.261	0.273	0.241
NCI-H2087	1.17	1.26	0.89	0.977	0.988	0.46	0.554	0.41	0.481	0.336	1.03	0.801	0.827	0.549	0.739	0.714	0.55	0.305
NCI-H2126	1.19	0.834	0.766	1.09	0.931	0.506	0.507	0.493	0.545	0.466	0.745	0.75	0.723	0.647	0.617	0.632	0.513	0.402
NCI-H2170	1.07	1.07	1.08	1.03	0.878	0.458	0.385	0.444	0.438	0.447	0.771	0.762	0.854	0.734	0.612	0.62	0.601	0.592
NCI-H2228	0.78	0.809	0.635	0.842	0.761	0.364	0.316	0.209	0.269	0.216	0.927	0.528	0.492	0.188	0.376	0.451	0.405	0.148
NCI-H2347	0.867	0.671	0.987	0.917	0.742	0.302	0.46	0.363	0.347	0.389	0.995	0.984	0.958	0.572	0.284	0.308	0.352	0.204
NCI-H2405	1.03	1	0.991	1.06	0.993	0.385	0.384	0.35	0.362	0.35	0.792	0.895	0.809	0.416	0.21	0.204	0.209	0.173
NCI-H3122	0.991	1.05	0.924	1.08	0.945	0.413	0.4	0.406	0.417	0.422	0.76	0.741	0.542	0.319	0.81	0.745	0.754	0.503
PC-3 [JPC-3]	1.11	1.06	1.14	1.13	1.04	0.47	0.5	0.496	0.515	0.504	1.06	0.947	0.916	0.893	0.915	0.972	0.99	0.907
PC-14	1.02	1.06	1.06	1.04	0.999	0.778	0.616	0.525	0.544	0.565	0.813	0.921	0.901	0.73	0.254	0.226	0.224	0.11
RERF-LC-KJ	0.865	0.859	0.682	0.7	0.546	0.402	0.44	0.427	0.41	0.379	0.718	0.917	0.75	0.588	0.883	0.869	0.764	0.608
